Experimental data taken from US20260327243A1, “SPIRO-HETEROCYCLIC INHIBITORS OF KRAS G12C MUTANT PROTEINS AND USES THEREOF” (AMGEN INC., priority 2023, published 2026).
Like-named read-outs stand apart in the source and are kept apart here.

Legend:
MIA PaCa-2 cells = test: Cell Viability Assay, MIA PaCa-2; assay type: cell-based; conditions: Homo sapiens, MIA PaCa-2, 72 h, human pancreatic carcinoma, CellTiter-Glo
Description: (§1) MIA PaCa-2 (human pancreatic carcinoma; ATCC CRL-1420) or A549 (human lung carcinoma; ATCC CCL-185) cells were cultured in RPMI 1640 medium containing 10% fetal bovine serum and 1×penicillin/streptomycin/L-glutamine. Cells were seeded in 384-well plates at a density of 1.67E+04 cells/mL and incubated at 37° C., 5% CO2, overnight. Serially-diluted compound or DMSO was added to the cells, and plates were incubated at 37° C., 5% CO2 for 72 h. Cell viability was measured using a CellTiter-Glo® Luminescent Cell Viability Assay kit (Promega) according to the manufacturer's protocol. The luminescence signal of treated samples was normalized to DMSO control, and data were analyzed using a 4-parameter logistic model to calculate IC50 values.
(§2) The following data (Table 3) categorizes the IC50 of each compound for inhibiting enzymatic activity of KRAS^G12C in the indicated cells.

KRAS^G12C = KRAS^G12C (Homo sapiens, UniProt P01116, C118A/G12C); test: Coupled Nucleotide Exchange Assay; assay type: biochemical; conditions: GDP-bound KRAS (aa 1-169) G12C/C118A; 2 h compound pre-incubation; SOS-mediated exchange, 30 min; cRAF binding (AlphaLISA)
Chain of KRAS^G12C (P01116 1-169 isoform P01116-2 G12C/C118A): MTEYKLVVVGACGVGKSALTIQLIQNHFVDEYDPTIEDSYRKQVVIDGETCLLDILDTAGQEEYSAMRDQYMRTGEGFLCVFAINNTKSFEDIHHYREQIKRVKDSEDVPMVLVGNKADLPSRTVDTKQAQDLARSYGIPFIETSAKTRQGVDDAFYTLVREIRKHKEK
Procedure, shortened: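 GDP-bound His-tagged KRAS aa 1-169 (G12C/C118A) pre-incubated 2 h with compound in 25 mM HEPES pH 7.4, 10 mM MgCl2, 0.01% Triton X-100 (±0.1% BSA), then SOS (aa 564-1049) plus GTP added for 30 min. GST-cRAF RBD binding read by AlphaLISA; DMSO-normalized, 4-parameter fit gives IC50.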

A549 cells = test: Cell Viability Assay, A549; assay type: cell-based; conditions: A549; human lung carcinoma; 72 h; CellTiter-Glo
Description: as §1, §2

[1] = system: advanced or metastatic cancer with the KRAS G12C mutation; conditions: cited from earlier work; for disease control rate: Hong et al. 2020
[2] = system: extracellular signal-regulated kinase (ERK); conditions: preclinical studies; Hong et al. 2020; cited from earlier work
KRAS p.G12C tumors = conditions: mice bearing KRAS p.G12C tumors; Hong et al. 2020; cited from earlier work

Compound | IC50 (MIA PaCa-2 cells) | IC50 (KRAS^G12C) | IC50 (A549 cells) | response by cancer type ([1]; NSCLC, colorectal, pancreatic, appendiceal, endometrial, esophageal, unknown primary, ampullary, gastric, small bowel, sinonasal, bile duct cancer, melanoma) | disease control rate ([1]; colorectal cancer, 42 subjects) | disease control rate ([1]; non-small cell lung cancer, 59 subjects) | disease control rate ([1]; other tumor types, 28 subjects) | inhibition of phosphorylation of ERK [2] | tumor regression (KRAS p.G12C tumors)
C=CC(=O)N1CCN([C@@H]2CN(c3cc(N4CCC5(CC4)OCC(COC)n4ncc(C)c45)nc(C(F)(F)F)n3)[C@@H]2C)CC1 (stereo partly drawn) [Compound 3-082, 1-(4-((2R,3R)-1-(6-(7′-(methoxymethyl)-3′-methyl-6′,7′-dihydrospiro[piperidine-4,4′-pyrazolo[5,1-c][1,4]oxazin]-1-yl)-2-(trifluoromethyl)pyrimidin-4-yl)-2-methylazetidin-3-yl)piperazin-1-yl)prop-2-en-1-one] | 0.145 µM | 0.069 µM | > 5 µM | – | – | – | – | – | –
C=CC(=O)N1CCN([C@@H]2CN(c3cc(N4CCC5(CC4)OCC(CF)n4ncc(C)c45)nc(C(F)(F)F)n3)[C@@H]2C)CC1 (stereo partly drawn) [Compound 3-083, 1-(4-((2R,3R)-1-(6-(7′-(fluoromethyl)-3′-methyl-6′,7′-dihydrospiro[piperidine-4,4′-pyrazolo[5,1-c][1,4]oxazin]-1-yl)-2-(trifluoromethyl)pyrimidin-4-yl)-2-methylazetidin-3-yl)piperazin-1-yl)prop-2-en-1-one] | 0.171 µM | 0.075 µM | > 5 µM | – | – | – | – | – | –
C=CC(=O)N1CCN([C@@H]2CN(c3cc(N4CC[C@]5(C[C@H]4C)OCC(CF)n4ncc(C)c45)nc(C(F)F)n3)[C@@H]2C)CC1 (stereo partly drawn) [Compound 3-084, 1-(4-((2R,3R)-1-(2-(difluoromethyl)-6-((2R,4R)-7′-(fluoromethyl)-2,3′-dimethyl-6′,7′-dihydrospiro[piperidine-4,4′-pyrazolo[5,1-c][1,4]oxazin]-1-yl)pyrimidin-4-yl)-2-methylazetidin-3-yl)piperazin-1-yl)prop-2-en-1-one] | 0.172 µM | 0.176 µM | > 5 µM | – | – | – | – | – | –
C=CC(=O)N1CCN([C@@H]2CN(c3cc(N4CCC5(CC4)OC[C@@H](COC)n4ncc(C)c45)nc(C(F)(F)F)n3)[C@@H]2C)CC1 [Compound 3-097, 1-(4-((2R,3R)-1-(6-((7′R)-7′-(methoxymethyl)-3′-methyl-6′,7′-dihydro-1H-spiro[piperidine-4,4′-pyrazolo[5,1-c][1.4]oxazin]-1-yl)-2-(trifluoromethyl)-4-pyrimidinyl)-2-methyl-3-azetidinyl)-1-piperazinyl)-2-propen-1-one] | 0.226 µM | 0.085 µM | > 5 µM | – | – | – | – | – | –
C=CC(=O)N1CCN([C@@H]2CN(c3cc(N4CCC5(CC4)OC[C@H](COC)n4ncc(C)c45)nc(C(F)(F)F)n3)[C@@H]2C)CC1 [Compound 3-098] | 0.224 µM | 0.131 µM | > 5 µM | – | – | – | – | – | –
C=CC(=O)N1CCN([C@@H]2CN(c3cc(N4CCC5(CC4)OC[C@@H](C)n4ncc(C)c45)nc(C(F)(F)F)n3)[C@@H]2C)CC1 [Compound 3-100, 1-(4-((2R,3R)-1-(6-((7′R)-3′,7′-dimethyl-6′,7′-dihydro-1H-spiro[piperidine-4,4′-pyrazolo[5,1-c][1,4]oxazin]-1-yl)-2-(trifluoromethyl)-4-pyrimidinyl)-2-methyl-3-azetidinyl)-1-piperazinyl)-2-propen-1-one] | 0.155 µM | 0.04 µM | > 5 µM | – | – | – | – | – | –
C=CC(=O)N1CCN(c2nc(=O)n(-c3c(C)ccnc3C(C)C)c3nc(-c4c(O)cccc4F)c(F)cc23)[C@@H](C)C1 [Sotorasib, sotorasib] | – | – | – | either stable disease (SD) or partial response (PR) | 73.8% | 88.1% | 75.0% | inhibited nearly all detectable phosphorylation of extracellular signal-regulated kinase (ERK) | durable complete tumor regression

Now from value to molecule, other results behind:

IC50 (MIA PaCa-2 cells) | IC50 (KRAS^G12C) | IC50 (A549 cells) | Compound | response by cancer type ([1]; NSCLC, colorectal, pancreatic, appendiceal, endometrial, esophageal, unknown primary, ampullary, gastric, small bowel, sinonasal, bile duct cancer, melanoma) | disease control rate ([1]; colorectal cancer, 42 subjects) | disease control rate ([1]; non-small cell lung cancer, 59 subjects) | disease control rate ([1]; other tumor types, 28 subjects) | inhibition of phosphorylation of ERK [2] | tumor regression (KRAS p.G12C tumors)
0.271 µM | 0.107 µM | > 5 µM | C=CC(=O)N1CCN([C@@H]2CN(c3cc(N4CCC5(CC4)c4c(C)ccnc4C4(COC4)C5F)nc(C(F)(F)F)n3)[C@@H]2C)CC1 (stereo partly drawn) [Compound 3-093, 1-(4-((2R,3R)-1-(6-(6′-fluoro-4′-methyl-1″H-dispiro[oxetane-3,7′-cyclopenta[b]pyridine-5′,4″- piperidin]-1″-yl)-2-(trifluoromethyl)-4-pyrimidinyl)-2-methyl-3-azetidinyl)-1-piperazinyl)-2-propen-1-one] | – | – | – | – | – | –
0.175 µM | 0.052 µM | > 5 µM | C=CC(=O)N1CCN([C@@H]2CN(c3cc(N4CCC5(CC4)OCCc4nccc(C)c45)nc(C(F)(F)F)n3)[C@@H]2C)CC1 [Compound 3-094, 1-(4-((2R,3R)-2-methyl-1-(6-(4′-methyl-7′,8′-dihydro-1H-spiro[piperidine-4,5′-pyrano[4.3-b]pyridin]-1-yl)-2-(trifluoromethyl)-4-pyrimidinyl)-3-azetidinyl)-1-piperazinyl)-2-propen-1-one] | – | – | – | – | – | –
0.159 µM | 0.031 µM | > 5 µM | C=CC(=O)N1CCN([C@@H]2CN(c3cc(N4CCC5(CC4)OC(C)(C)c4nccc(C)c45)nc(C(F)(F)F)n3)[C@@H]2C)CC1 [Compound 3-095] | – | – | – | – | – | –
0.267 µM | 0.069 µM | > 5 µM | C=CC(=O)N1CCN([C@@H]2CN(c3cc(N4CCC5(CC4)OC(C)(C)c4nccc(C)c45)nc(C(F)F)n3)[C@@H]2C)CC1 [Compound 3-096, 1-(4-((2R,3R)-1-(2-(difluoromethyl)-6-(4,7,7-trimethyl-1′H,7H-spiro[furo[3,4-b]pyridine-5,4′-piperidin]-1′-yl)-4-pyrimidinyl)-2-methyl-3-azetidinyl)-1-piperazinyl)-2-propen-1-one] | – | – | – | – | – | –
0.165 µM | 0.041 µM | > 5 µM | C=CC(=O)N1CCN([C@@H]2CN(c3cc(N4CCC5(CC4)C(=O)C4(COC4)c4nccc(C)c45)nc(C(F)(F)F)n3)[C@@H]2C)CC1 [Compound 3-099, 4′-methyl-1″-(6-((2R,3R)-2-methyl-3-(4-(2-propenoyl)-1-piperazinyl)-1-azetidinyl)-2-(trifluoromethyl)-4-pyrimidinyl)dispiro[oxetane-3,7′-cyclopenta[b]pyridine-5′,4″-piperidin]-6′-one] | – | – | – | – | – | –
0.259 µM | 0.07 µM | > 5 µM | C=CC(=O)N1CCN([C@@H]2CN(c3cc(N4CCC5(CC4)OC[C@H](C)n4ncc(C)c45)nc(C(F)(F)F)n3)[C@@H]2C)CC1 [Compound 3-101, 1-(4-((2R,3R)-1-(6-((7′S)-3′,7′-dimethyl-6′,7′-dihydro-1H-spiro[piperidine-4,4′-pyrazolo[5.1-c][1,4]oxazin]-1-yl)-2-(trifluoromethyl)-4-pyrimidinyl)-2-methyl-3-azetidinyl)-1-piperazinyl)-2-propen-1-one] | – | – | – | – | – | –
0.077 µM | 0.023 µM | > 5 µM | C=CC(=O)N1CCN([C@@H]2CN(c3cc(N4CCC5(CC4)OC4(COC4)c4nccc(C)c45)nc(C(F)(F)F)n3)[C@@H]2C)CC1 [Compound 3-102, 1-(4-((2R,3R)-2-methyl-1-(6-(4′-methyl-1″H-dispiro[oxetane-3,7′-furo[3,4-b]pyridine-5′.4″-piperidin]-1″- yl)-2-(trifluoromethyl)-4-pyrimidinyl)-3-azetidinyl)-1-piperazinyl)-2-propen-1-one] | – | – | – | – | – | –
0.171 µM | 0.036 µM | > 5 µM | C=CC(=O)N1CCN([C@@H]2CN(c3cc(N4CCC5(CC4)OC4(COC4)c4nccc(C)c45)nc(C(F)F)n3)[C@@H]2C)CC1 [Compound 3-103, 1-(4-((2R,3R)-1-(2-(difluoromethyl)-6-(4′-methyl-1″H-dispiro[oxetane-3,7′-furo[3,4-b]pyridine-5′,4″- piperidin]-1″-yl)-4-pyrimidinyl)-2-methyl-3-azetidinyl)-1-piperazinyl)-2-propen-1-one] | – | – | – | – | – | –
0.081 µM | 0.021 µM | > 5 µM | C=CC(=O)N1CCN([C@@H]2CN(c3cc(N4CC[C@]5(C[C@H]4C)OC4(COC4)c4nccc(C)c45)nc(C(F)(F)F)n3)[C@@H]2C)CC1 [Compound 3-104, 1-(4-((2R,3R)-1-(6-((2″R,5′R)-2″,4′-dimethyl-1″H-dispiro[oxetane-3,7′-furo[3,4-b]pyridine-5′,4″-piperidin]-1″- yl)-2-(trifluoromethyl)-4-pyrimidinyl)-2-methyl-3-azetidinyl)-1-piperazinyl)-2-propen-1-one] | – | – | – | – | – | –
